The structures appear in SMILES notation. Calls of active or inactive are those of the source. No cut-off for these calls is given here.

Drawing on ChEMBL document CHEMBL1149539, “Design, synthesis, and biological activity of folate receptor-targeted prodrugs of thiolate histone deacetylase inhibitors” (Bioorg Med Chem Lett, 2007), this text covers IC50 and Activity for 4 compounds.

In test [1] the target is Histone deacetylase. Briefly: Inhibition of HDAC in HeLa cells in presence of DTT after 30 mins by fluorescent activity assay. The test is classed as cell-based, Homo sapiens.
Test [2] deals with Histone deacetylase. Briefly: Inhibition of HDAC in HeLa cells after 30 mins by fluorescent activity assay. The test is classed as cell-based, Homo sapiens.
For test [3], the system named is MCF7. Briefly: Increase in accumulation of acetylated histone H4 in human MCF7 cells in presence of 100 uM folic acid after 14 hrs by Western blot analysis. Format: functional, cell-based. On the technique in general: A western blot detects proteins with antibodies after separation by electrophoresis.
Test [4] deals with MCF7. Briefly: Growth inhibition of human MCF7 cells after 72 hrs by Alamar Blue assay. Format: functional, cell-based. (In general: Resazurin is reduced to fluorescent resorufin, in cell work by metabolically active cells.)
The subject of test [5] is MCF7. Briefly: Increase in accumulation of acetylated histone H4 in human MCF7 cells after 14 hrs by Western blot analysis. Format: functional, cell-based.

Regarding `NC1=NC(=O)C2N=C(CNc3ccc(C(=O)N[C@@H](CCC(=O)NCCOCCOCCSSCCCCCCC(=O)Nc4ncc(-c5ccccc5)s4)C(=O)O)cc3)C=NC2=N1` (some centres not stated), the IC50 (in general, the concentration at which inhibition is half-maximal) in test [1] is 3 µM.

Take `NC1=NC(=O)C2N=C(CNc3ccc(C(=O)N[C@@H](CCC(=O)NCCCCCCS)C(=O)O)cc3)C=NC2=N1` (some centres not stated): in test [2], the IC50 is 21 µM.

`NC1=NC(=O)C2N=C(CNc3ccc(C(=O)N[C@@H](CCC(=O)NCCCCCCSSCCCCCCNC(=O)CC[C@H](NC(=O)c4ccc(NCC5=NC6C(=O)N=C(N)N=C6N=C5)cc4)C(=O)O)C(=O)O)cc3)C=NC2=N1` (some centres not stated): the IC50 in test [1] came to 9 µM.

On to `NC1=NC(=O)C2N=C(CNc3ccc(C(=O)N[C@@H](CCC(=O)NCCSSCCCCCCC(=O)Nc4ncc(-c5ccccc5)s4)C(=O)O)cc3)C=NC2=N1` (some centres not stated), for which, in test [3], the result was inactive. Also, in test [4], the Activity result is “Dose-dependent effect”. Also, the outcome in test [5] was Active. In addition, in test [1], the IC50 is 0.27 µM.
